Reference: patent US10925914B2, “Method for alleviating depression using a health functional food containing Vaccinium bracteatum Thunb fruit extract” (priority 2016, dated 2021)
Where a name gives a salt, the structure may show the parent alone.

Legend:
[1] = system: SH-SY5Y cells (neuroblastoma, human dopaminergic neuronal cells); conditions: 24 h
Procedure: SH-SY5Y cells (neuroblastoma, human dopaminergic neuronal cells) were incubated in MEM medium containing 1% antimycotics/antibiotics and 10% FBS. The cells were seeded at a density of 10^5 cell/ […] in a 96-well plate, and then incubated for 24 hours.
The cell line used was SH-SY5Y cells, and the cells were treated with the Vaccinium bracteatum Thunb. fruit hot-water extract at concentrations of 1, 3, 10, 30, and 100 μg/ml to investigate cytotoxicity.
(§1) After 24 hours, cell viability was determined using an MTT assay.
as §1

ICR male mice = test: Forced swimming test after 6-day oral administration; format: in vivo; conditions: comparison group, 6 days
Procedure: The ICR male mice were orally administered with the Vaccinium bracteatum Thunb. fruit extract of the present invention. For a comparative group, escitalopram oxalate used an anti-depressant was orally administered. These were administered for 6 days according to the test. Before drug administration, for the pre-test (pre-swim), tap water around 25° C. was poured into a cylindrical water tank (20 cm in diameter, 40 cm in height) from the bottom of the cylinder to 15 cm, and then the mice were put into the water tank, forced to swim for 15 minutes, taken out from the water, wiped with a dry towel, and then returned to breeding boxes. After 6 days of drug administration, the present test (post-swim) was carried out. […] The recorded image was analyzed excluding the first minute therefrom, and animal behavior during the last 5 minutes was classified into 3 types: immobility behavior (the mouse only floated near the surface of the water, slightly moving while only a part of the upper body including the face was above water), swimming behavior (the mouse moved horizontally around the cylinder moving the front and hind legs in a swimming motion), and climbing behavior (the mouse scratched the wall, somewhat violently kicking the front extremities to move remain above water). The duration of each behavior type was measured.

corticosterone (COR) = test: Plasma corticosterone (COR) by ELISA after 6-day administration; format: in vivo, mice; conditions: escitalopram oxalate 10 mg/kg, 6 days; no significance
Procedure: The effects on concentration changes of the neurotransmitter NE associated with depression and the stress hormone COR in normal conditions were measured by isolating plasma from the mice after 6 day-administration of each drug and using the Abnova ELISA kit according to the instruction of the manufacturer.

C[C@]12C[C@H](O)[C@H]3[C@@H](CCC4=CC(=O)CC[C@@]43C)[C@@H]1CC[C@@H]2C(=O)CO [corticosterone]
cytotoxicity ([1]; 1 mM): 50-60%

CN(C)CCC[C@@]1(c2ccc(F)cc2)OCc2cc(C#N)ccc21 [escitalopram oxalate]
swimming time (ICR male mice; control 51.82±3.38 seconds): 128.16 ± 6.65 s
immobility time (ICR male mice; last 5 min of 6 min swim, control 245.48±4.05 seconds): 169.65 ± 7.15 s
level of the stress hormone corticosterone compared with the control group (corticosterone (COR)): decrease tendency

OO [H2O2, hydrogen peroxide]
cell viability ([1]; 10 μM): 50-60%
